Test results from the supplement of paper PMC10307832.

Key:
Assay in all cases: relative viability (nuclei count vs DMSO), 5 days (fraction); higher = more cells survive
[1] = compound: C1COCCN1C2=NC(=NC3=C2OC4=C3C=CC=N4)C5=CC(=CC=C5)NC(=O)C6=CN=C(C=C6)N + O=C(c1cc(Cc2n[nH]c(=O)c3ccccc23)ccc1F)N1CCN(C(=O)C2CC2)CC1 [Olaparib] (partner 8 µM)
Procedure, shortened: (§1)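 The day after seeding in 1536-well plates, lung cancer cell lines were treated by pin tool with a single drug, or with a fixed anchor-drug dose together with five library-drug doses (not always all listed) in √10 steps. After 5 days, a combined fix-and-stain solution (final 0.05% Triton X-100, 1% formaldehyde, 1 ug/ml Hoechst) was added. Nuclei counted on 4× images gave relative viability as treated counts over vehicle counts, reported as the median of duplicate plates.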

SGI-1776 + AZD7762 = compound: CN1CCC(CNc2ccc3ncc(-c4cccc(OC(F)(F)F)c4)n3n2)CC1 [SGI-1776] + NC(=O)Nc1cc(-c2cccc(F)c2)sc1C(=O)N[C@H]1CCCNC1 [AZD7762] (partner 0.2 µM)
Procedure, shortened: as §1

SGI-1776 + Dasatinib = compound: CN1CCC(CNc2ccc3ncc(-c4cccc(OC(F)(F)F)c4)n3n2)CC1 [SGI-1776] + Cc1nc(Nc2ncc(C(=O)Nc3c(C)cccc3Cl)s2)cc(N2CCN(CCO)CC2)n1 [Dasatinib] (partner 0.075 µM)
Procedure, shortened: as §1

SGI-1776 + Pictilisib = compound: CN1CCC(CNc2ccc3ncc(-c4cccc(OC(F)(F)F)c4)n3n2)CC1 [SGI-1776] + CS(=O)(=O)N1CCN(Cc2cc3nc(-c4cccc5[nH]ncc45)nc(N4CCOCC4)c3s2)CC1 [Pictilisib] (partner 1 µM)
Procedure, shortened: as §1

Cell Line	relative viability ([1]; first compound 0.02 µM)	relative viability ([1]; first compound 0.06325 µM)	relative viability ([1]; first compound 0.2 µM)	relative viability ([1]; first compound 0.6325 µM)	relative viability ([1]; first compound 2 µM)	relative viability (SGI-1776 + AZD7762; first compound 0.08 µM)	relative viability (SGI-1776 + AZD7762; first compound 0.8 µM)	relative viability (SGI-1776 + AZD7762; first compound 2.53 µM)	relative viability (SGI-1776 + AZD7762; first compound 8 µM)	relative viability (SGI-1776 + Dasatinib; first compound 0.08 µM)	relative viability (SGI-1776 + Dasatinib; first compound 0.8 µM)	relative viability (SGI-1776 + Dasatinib; first compound 2.53 µM)	relative viability (SGI-1776 + Dasatinib; first compound 8 µM)	relative viability (SGI-1776 + Pictilisib; first compound 0.08 µM)	relative viability (SGI-1776 + Pictilisib; first compound 0.8 µM)	relative viability (SGI-1776 + Pictilisib; first compound 2.53 µM)	relative viability (SGI-1776 + Pictilisib; first compound 8 µM)
LCLC-103H	0.732	0.799	0.815	0.745	0.502	0.9	0.776	0.675	0.729	0.527	0.479	0.535	0.432	0.752	0.608	0.554	0.45
LK-2	0.609	0.902	0.691	0.651	0.464	0.423	0.54	0.324	0.236	0.301	0.354	0.253	0.173	0.504	0.563	0.47	0.308
LOU-NH91	0.928	0.959	0.942	0.864	0.745	0.797	0.793	0.7	0.593	0.571	0.597	0.555	0.43	0.565	0.55	0.505	0.504
LU99A	0.264	0.27	0.226	0.262	0.222	0.38	0.384	0.339	0.294	0.727	0.56	0.382	0.441	0.29	0.339	0.309	0.28
LXF-289	1.13	1.18	1.17	1.06	0.803	1.06	1.13	1.16	1.09	0.222	0.224	0.148	0.161	0.699	0.837	0.806	0.67
NCI-H23	0.417	0.314	0.281	0.3	0.226	0.252	0.278	0.281	0.235	0.819	0.84	0.813	0.831	0.558	0.448	0.449	0.387
NCI-H322M	0.793	0.77	0.685	0.943	0.586	0.631	0.568	0.524	0.646	0.27	0.252	0.208	0.252	0.571	0.483	0.473	0.445
NCI-H358	0.7	0.662	0.552	0.579	0.372	0.465	0.467	0.456	0.348	0.197	0.186	0.158	0.133	0.37	0.375	0.334	0.253
NCI-H441	0.451	0.553	0.686	0.536	0.414	1.25	1.2	1.07	1.13	0.633	0.625	0.539	0.55	0.399	0.62	0.564	0.299
NCI-H460	0.578	0.537	0.376	0.413	0.182	0.717	0.669	0.572	0.707	0.52	0.543	0.508	0.299	0.376	0.343	0.42	0.289
NCI-H596	0.589	0.668	0.601	0.747	0.621	1.17	1.15	0.984	0.897	0.571	0.528	0.51	0.441	0.43	0.383	0.365	0.298
NCI-H647	0.684	0.69	0.573	0.606	0.256	0.479	0.49	0.414	0.319	0.188	0.184	0.111	0.117	0.474	0.434	0.247	0.219
NCI-H650	0.403	0.405	0.379	0.371	0.408	1.21	0.941	0.994	1.17	0.492	0.497	0.434	0.37	0.958	0.731	0.868	0.644
NCI-H727	0.723	0.802	0.746	0.605	0.606	0.696	0.739	0.807	0.583	0.4	0.426	0.351	0.356	0.398	0.626	0.376	0.285
NCI-H838	0.86	0.812	0.743	0.741	0.353	0.944	0.961	0.932	0.916	0.282	0.275	0.256	0.257	0.446	0.398	0.414	0.277
NCI-H1355	0.736	0.886	0.781	0.757	0.572	0.782	0.772	0.657	0.642	0.778	0.722	0.52	0.604	0.488	0.494	0.439	0.364
NCI-H1395	0.473	0.427	0.422	0.461	0.377	0.424	0.432	0.393	0.402	0.381	0.379	0.394	0.373	0.591	0.64	0.542	0.494
NCI-H1437	0.645	0.682	0.613	0.681	0.239	1.11	1.13	1.07	1.02	0.335	0.427	0.298	0.242	0.435	0.517	0.367	0.219
